Laboratory results published in patent publication US20090247465A1, “Novel Use of Bivalirudin in the Treatment of Acute Coronary Syndrome” (priority 2008, published 2009).

Experiments:
[1] = tested on: patients with moderate and high risk NSTE-ACS; conditions: ACUITY; bivalirudin monotherapy vs UFH/enoxaparin plus a GP IIb/IIIa inhibitor; cited from earlier work
[2] = in vivo; cited from earlier work
[3] = tested on: patients with moderate and high risk NSTE-ACS; experiment: ACUITY analysis: clinical outcomes at 30 days, consistent UFH/enoxaparin plus GP IIb/IIIa inhibitor vs switch to bivalirudin, and antithrombin-naïve patients; conditions: human, in vivo
Excerpt: A total of 4215 patients received prior antithrombin therapy with either UFH or enoxaparin before randomization. Of these, 2137 were randomized to receive the same antithrombin plus a GP IIb/IIIa inhibitor (consistent), while 2078 patients were randomized to receive bivalirudin (switch). There were 2889 patients naïve to antithrombin therapy at randomization, and of these, 1462 patients were randomized to UFH/enoxaparin plus a GP IIb/IIIa inhibitor and 1427 to bivalirudin monotherapy (FIG. 1).
At 30 days, there was no difference in composite ischemia between the two groups: 6.9% for patients switched to bivalirudin vs. 7.4% for patients remaining on consistent UFH/enoxaparin ([RR 0.93; 0.75-1.16], p=0.52). […] Transfusions were also lower in the patients switched to bivalirudin vs. patients remaining on consistent UFH/enoxaparin (1.5% vs. 2.6% [RR 0.60; 0.39-0.92], p=0.02). (Table 2, FIG. 2).
Tables 3a and 3b show clinical outcomes according to type of heparin therapy (UFH or enoxaparin) in patients on prior antithrombin therapy and in patients naive to antithrombin therapy. […]

Row | Compound | absolute reduction in major bleeding [1] | relative reduction in major bleeding [1] | doses not causing adverse effects [2] | Major bleeding, number of patients [3] | Transfusion, number of patients [3]
1 | CC[C@H](C)[C@H](NC(=O)[C@H](CCC(=O)O)NC(=O)[C@H](CCC(=O)O)NC(=O)[C@H](Cc1ccccc1)NC(=O)[C@H](CC(=O)O)NC(=O)CNC(=O)[C@H](CC(N)=O)NC(=O)CNC(=O)CNC(=O)CNC(=O)CNC(=O)[C@@H]1CCCN1C(=O)[C@H](CCCNC(=N)N)NC(=O)[C@@H]1CCCN1C(=O)[C@H](N)Cc1ccccc1)C(=O)N1CCC[C@H]1C(=O)N[C@@H](CCC(=O)O)C(=O)N[C@@H](CCC(=O)O)C(=O)N[C@@H](Cc1ccc(O)cc1)C(=O)N[C@@H](CC(C)C)C(=O)O [Bivalirudin, bivalirudin] | 2.7% | 47% | up to 7.5 mg/kg |  | 
2 | enoxaparin |  |  |  | 42 | 19
